In patent US9670231B2, “Fused tricyclic amide compounds as multiple kinase inhibitors” (BEIGENE, LTD., priority 2013, dated 2017):
Read-outs that look alike come from different tables or passages of the source.

What was measured:
Assay type in all cases: biochemical
B-Raf (V600E) = B-Raf (V600E) (Homo sapiens (Human), UniProt P15056, V600E); assay: Raf IC50 assay, TR-FRET, B-Raf (V600E); settings: 0.1 mM ATP; read-out: IC50 BRAF-V600E
Method: The enzyme was incubated with the compounds disclosed herein at room temperature for 60 minutes and the reactions were initiated by the addition of ATP and GST-MEK1. After reaction at room temperature for 60 minutes, an equal volume of stop/detection solution was added according to the manufacture's instruction (CisBio Bioassays). […] The IC50 for each compound was derived from fitting the dose-response % inhibition data to the four-parameter logistic model by Graphpad Prism software.

C-Raf (Y340D/Y341D) = C-Raf (Y340D/Y341D) (Homo sapiens (Human), UniProt P04049, Y340D/Y341D); assay: Raf IC50 assay, TR-FRET, C-Raf (Y340D/Y341D); settings: 0.1 mM ATP
Chain of C-Raf (Y340D/Y341D) (P04049 whole entry Y340D/Y341D): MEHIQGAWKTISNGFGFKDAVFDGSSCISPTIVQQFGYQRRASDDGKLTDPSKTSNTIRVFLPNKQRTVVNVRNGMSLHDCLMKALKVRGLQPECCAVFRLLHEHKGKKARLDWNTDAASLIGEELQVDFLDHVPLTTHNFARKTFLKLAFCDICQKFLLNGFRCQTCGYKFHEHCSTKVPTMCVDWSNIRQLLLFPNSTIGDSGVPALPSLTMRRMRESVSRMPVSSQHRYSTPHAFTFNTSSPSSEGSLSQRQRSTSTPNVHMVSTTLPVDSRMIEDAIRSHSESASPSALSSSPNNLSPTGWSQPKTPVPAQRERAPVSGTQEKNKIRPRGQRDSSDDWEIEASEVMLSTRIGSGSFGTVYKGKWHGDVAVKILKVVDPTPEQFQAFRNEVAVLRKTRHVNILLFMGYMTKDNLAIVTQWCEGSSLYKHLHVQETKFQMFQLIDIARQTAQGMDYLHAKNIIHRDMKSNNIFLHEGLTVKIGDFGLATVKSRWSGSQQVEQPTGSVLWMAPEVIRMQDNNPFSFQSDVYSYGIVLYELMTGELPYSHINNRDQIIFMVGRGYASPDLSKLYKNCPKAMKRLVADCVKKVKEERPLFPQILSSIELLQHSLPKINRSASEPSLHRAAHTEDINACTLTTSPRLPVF
Method: Compounds disclosed herein were tested against B-Raf (V600E) (PV3849, from Invitrogen) or C-Raf (Y340D/Y341D) (PV3805, from Invitrogen) in a time-resolved fluorescence energy transfer assay. The assay was carried out in reactions (10 μL) containing 0.0625 nM B-Raf or 0.5 nM C-Raf, 25 mM Tris pH7.4, 10 mM MgCl2, 0.5 mM EGTA, 0.5 mM Na3VO4, 5 mM beta-glycerophosphate, 0.01% Triton X-100, 2.5 mM DTT, 0.1% BSA, 0.1 mM ATP, 13.7 nM GST-tagged MEK1 (Full-length protein with K97R mutation, recombinant protein purified from bacterial expression system) and 0-5 μM compounds disclosed herein (final concentration of 1% DMSO). The enzyme was incubated with the compounds disclosed herein at room temperature for 60 minutes and the reactions were initiated by the addition of ATP and GST-MEK1. After reaction at room temperature for 60 minutes, an equal volume of stop/detection solution was added according to the manufacture's instruction (CisBio Bioassays). The stop/detection solution contained Eu^3+ cryptate-conjugated anti-phospho MEK1/2 (Ser217/221) rabbit polyclonal antibody and d2-conjugated anti-GST mouse monoclonal antibody in buffer containing 25 mM Tris pH7.4, 400 mM KF, 50 mM EDTA, 0.01% BSA and 0.01% Triton X-100. Plates were sealed and incubated at room temperature for 2 hours, and the TR-FRET signals (ratio of fluorescence emission at 665 nm over emission at 620 nm with excitation at 337 nm wavelength) were recorded on a PHERAstar FS plate reader (BMG Labtech). Phosphorylation of MEK1 led to the binding of anti-phospho-MEK1/2 antibody to GST-MEK1 protein that place fluorescent donor (Eu^3+ crypate) in close proximity to the accepter d2 on the anti-GST antibody, thus resulting in a high degree of fluorescence resonance energy transfer from the donor fluorophore (at 620 nm) to the acceptor fluorophore (at 665 nm). […] The IC50 for each compound was derived from fitting the dose-response % inhibition data to the four-parameter logistic model by Graphpad Prism software.

wild type B-Raf = wild type B-Raf (Homo sapiens (Human), UniProt P15056); assay: WT BRaf IC50 assay, TR-FRET; parameters: Braf-WT Km ATP, % at 100 nM: scale not given here; settings: for Braf-WT Km ATP, % at 100 nM: at 100 nM compound
Chain of wild type B-Raf (P15056 whole entry): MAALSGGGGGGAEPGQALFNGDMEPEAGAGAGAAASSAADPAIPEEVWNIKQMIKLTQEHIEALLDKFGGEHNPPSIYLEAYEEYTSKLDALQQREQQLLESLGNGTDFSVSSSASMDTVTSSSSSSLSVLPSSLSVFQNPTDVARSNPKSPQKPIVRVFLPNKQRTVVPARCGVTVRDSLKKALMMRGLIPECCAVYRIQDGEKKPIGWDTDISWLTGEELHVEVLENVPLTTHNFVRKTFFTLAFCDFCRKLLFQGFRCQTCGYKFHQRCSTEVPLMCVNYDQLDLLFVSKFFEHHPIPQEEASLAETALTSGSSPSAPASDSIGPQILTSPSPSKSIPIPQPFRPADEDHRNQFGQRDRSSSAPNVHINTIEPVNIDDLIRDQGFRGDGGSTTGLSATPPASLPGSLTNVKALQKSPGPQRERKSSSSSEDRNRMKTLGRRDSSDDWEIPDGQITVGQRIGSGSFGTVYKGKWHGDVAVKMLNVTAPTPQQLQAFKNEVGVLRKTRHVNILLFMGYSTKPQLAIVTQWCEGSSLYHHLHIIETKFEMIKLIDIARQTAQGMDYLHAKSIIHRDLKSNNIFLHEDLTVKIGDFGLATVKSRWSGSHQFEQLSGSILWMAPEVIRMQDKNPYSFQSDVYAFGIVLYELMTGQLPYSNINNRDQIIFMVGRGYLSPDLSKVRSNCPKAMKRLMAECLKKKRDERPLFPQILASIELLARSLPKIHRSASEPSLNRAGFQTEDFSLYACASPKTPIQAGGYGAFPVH
Method: WT BRaf IC50 Assay Protocol
Compounds disclosed herein were tested against wild type B-Raf (PV3848, from Invitrogen) in a time-resolved fluorescence energy transfer assay. […] The enzyme was incubated with the compounds disclosed herein at room temperature for 120 minutes and the reactions were initiated by the addition of ATP and GST-MEK1. After incubating at room temperature for 60 minutes, an equal volume of stop buffer containing 25 mM Tris pH7.4, 400 mM KF, 50 mM EDTA, 0.1% BSA, 0.01% Triton X-100, 1 test of Eu3+Cryptate-conjugated rabbit polyclonal antibody anti-Phospho MEK1/2 (Ser217/221) and 1 test of d2-conjugated mouse monoclonal antibody anti-glutathione S-transferase was added to stop the reactions. Plates were sealed and incubated at room temperature for 1.5 hours, and then the TR-FRET signals were read on BMG PHERAstar FS instrument. The IC50 for each compound was calculated by non linear regression by Graphpad Prism software.

WT EGFR kinase domain = WT EGFR kinase domain (Homo sapiens (Human), UniProt P00533); assay: EGFR enzymatic assay, TR-FRET, WT EGFR
Chain of WT EGFR kinase domain (P00533 669-1210): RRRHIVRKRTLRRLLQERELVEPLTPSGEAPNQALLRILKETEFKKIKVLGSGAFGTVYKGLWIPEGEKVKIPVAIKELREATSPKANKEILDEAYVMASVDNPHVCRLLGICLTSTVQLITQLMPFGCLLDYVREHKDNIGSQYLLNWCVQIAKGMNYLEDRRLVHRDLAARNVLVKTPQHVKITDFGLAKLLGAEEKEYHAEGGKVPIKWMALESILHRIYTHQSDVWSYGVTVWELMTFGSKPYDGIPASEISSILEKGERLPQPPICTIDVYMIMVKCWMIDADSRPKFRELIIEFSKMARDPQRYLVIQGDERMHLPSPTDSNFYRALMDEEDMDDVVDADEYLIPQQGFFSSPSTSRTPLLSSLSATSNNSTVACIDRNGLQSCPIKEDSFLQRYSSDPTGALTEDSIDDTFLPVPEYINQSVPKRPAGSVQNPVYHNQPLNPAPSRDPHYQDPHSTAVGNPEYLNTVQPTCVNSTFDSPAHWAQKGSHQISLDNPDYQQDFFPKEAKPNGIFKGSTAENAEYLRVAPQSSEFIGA
Method: (§1) Compounds disclosed herein were tested against WT EGFR kinase domain (aa.669-1210, Carna Biosciences, 08-115), EGFR T790M/L858R kinase domain (aa.669-1210, Carna Biosciences, 08-510) and EGFR L858R kinase domain (aa.669-1210, Carna Biosciences, 08-502) in assays based on time-resolved fluorescence-resonance energy transfer methodology. The assay was carried out in 384-well low volume black plate in a reaction mixture containing EGFR kinases, 20 LM for EGFR WT and T790M/L858R, and 125 LM for EGFR L858R), biotin-TK substrate and 0-5 LM compounds in buffer containing 50 mM HEPES pH7.5, 10 mM MgCl2, 1 mM EGTA, 0.01% Brij-35, 2.5 mM DTT, 0.1% BSA. The kinase was incubated with the compounds disclosed herein at room temperature for 120 minutes and the reaction was initiated by the addition of ATP and biotin-TK substrate. After reaction at room temperature for 30 minutes, an equal volume of stop/detection solution was added according to the manufacture's instruction (CisBio Bioassays). The stop/detection solution contained TK-Antibody-Cryptate and Streptavidin-XL665 in buffer containing 25 mM Tris pH7.4, 400 mM KF, 50 mM EDTA, 0.01% BSA, 0.01% Triton X-100. Plates were sealed and incubated at room temperature for 1 hour, and the TR-FRET signals were read on BMG PHERAstar FS instrument. The IC50 of an inhibitor was derived from fitting the % inhibition data at each compound concentration to the four-parameter logistic equation by Graphpad Prism software.

EGFR L858R kinase domain = EGFR L858R kinase domain (Homo sapiens (Human), UniProt P00533, L858R); assay: EGFR enzymatic assay, TR-FRET, EGFR L858R
Chain of EGFR L858R kinase domain (P00533 669-1210 L858R): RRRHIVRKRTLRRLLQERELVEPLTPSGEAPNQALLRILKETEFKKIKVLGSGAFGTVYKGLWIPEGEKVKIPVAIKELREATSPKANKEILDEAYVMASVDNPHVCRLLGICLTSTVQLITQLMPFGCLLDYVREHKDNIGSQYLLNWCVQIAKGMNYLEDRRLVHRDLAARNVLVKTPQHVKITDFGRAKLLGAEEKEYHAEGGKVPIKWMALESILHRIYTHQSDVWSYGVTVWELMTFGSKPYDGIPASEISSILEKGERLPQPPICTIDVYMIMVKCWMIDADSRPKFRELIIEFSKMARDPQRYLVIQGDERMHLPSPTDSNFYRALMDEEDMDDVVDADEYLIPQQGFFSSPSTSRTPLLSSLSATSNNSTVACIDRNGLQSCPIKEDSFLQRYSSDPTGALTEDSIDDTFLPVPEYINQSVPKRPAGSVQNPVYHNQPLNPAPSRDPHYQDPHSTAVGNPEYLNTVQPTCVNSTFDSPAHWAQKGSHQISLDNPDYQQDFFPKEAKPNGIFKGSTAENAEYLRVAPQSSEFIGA
Method: as §1

[1] = target: EGFR T790M/L858R kinase domain (Homo sapiens (Human), UniProt P00533, L858R/T790M); assay: EGFR enzymatic assay, TR-FRET, EGFR T790M/L858R
Chain of EGFR T790M/L858R kinase domain (P00533 669-1210 T790M/L858R): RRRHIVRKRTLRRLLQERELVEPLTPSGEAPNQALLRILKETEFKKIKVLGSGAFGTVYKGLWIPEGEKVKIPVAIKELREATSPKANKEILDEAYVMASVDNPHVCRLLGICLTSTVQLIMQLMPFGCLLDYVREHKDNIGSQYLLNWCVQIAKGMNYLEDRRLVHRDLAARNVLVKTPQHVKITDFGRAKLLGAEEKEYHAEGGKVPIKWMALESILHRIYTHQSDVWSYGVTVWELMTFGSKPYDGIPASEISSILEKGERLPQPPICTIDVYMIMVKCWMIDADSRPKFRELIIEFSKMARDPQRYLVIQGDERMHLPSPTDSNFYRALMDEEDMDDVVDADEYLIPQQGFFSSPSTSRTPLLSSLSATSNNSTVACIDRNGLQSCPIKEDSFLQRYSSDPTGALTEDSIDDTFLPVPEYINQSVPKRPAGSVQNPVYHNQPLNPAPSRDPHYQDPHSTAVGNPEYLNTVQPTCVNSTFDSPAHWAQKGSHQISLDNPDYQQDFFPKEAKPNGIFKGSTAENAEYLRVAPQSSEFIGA
Method: as §1

[2] = Km ATP ([…] ATP), read-out: IC50 Braf-WT Km ATP

Chain of B-Raf (V600E) (P15056 whole entry V600E): as the sequence (P15056 whole entry) above, with V600E counted along it

Row | Compound | IC50 (B-Raf (V600E)) [nM] | IC50 (C-Raf (Y340D/Y341D)) [nM] | Braf-WT Km ATP, % at 100 nM (wild type B-Raf) [% at 100 nM] | IC50 (wild type B-Raf; IC50 Braf-WT […] ATP, […] ATP) [nM] | IC50 (wild type B-Raf; [2]) [nM] | IC50 (WT EGFR kinase domain) [nM] | IC50 (EGFR L858R kinase domain) [nM] | IC50 [1] [nM]
1 | N[C@@H]1[C@H]2Oc3ccc(Oc4ccnc5c4CCC(=O)N5)cc3[C@@H]12 [Intermediate I, 5-(((1S,1aS,6bS)-1-amino-1a,6b-dihydro-1H-cyclopropa[b]benzofuran-5-yl)oxy)-3,4-dihydro-1,8-naphthyridin-2(1H)-one] | 2840 | 277 | −2 |  |  |  |  | 
2 | CC(C)(N)c1cc(C(=O)N[C@@H]2[C@H]3Oc4ccc(Oc5ccnc6c5CCC(=O)N6)cc4[C@@H]23)cc(C(F)(F)F)c1 [Compound 1.25, 3-(2-aminopropan-2-yl)-N-((1S,1aS,6bS)-5-((7-oxo-5,6,7,8-tetrahydro-1,8-naphthyridin-4-yl)oxy)-1a,6b-dihydro-1H-cyclopropa[b]benzofuran-1-yl)-5-(trifluoromethyl)benzamide] | 0.71 | 0.25 |  | 3.4 | 1.4 | 0.48 | 0.15 | 1.2
3 | CC(C)(C#N)c1cccc(C(=O)N[C@@H]2[C@H]3Oc4ccc(Oc5ccnc6c5CCC(=O)N6)cc4[C@@H]23)c1 [Compound 1.43] | 4.1 | 0.34 |  |  | 4.4 | 13 | 11 | 38
4 | NC1(c2cc(C(=O)N[C@@H]3[C@H]4Oc5ccc(Oc6ccnc7c6CCC(=O)N7)cc5[C@@H]34)cc(C(F)(F)F)c2)CC1 [Compound 1.26, 3-(1-aminocyclopropyl)-N-((1S,1aS,6bS)-5-((7-oxo-5,6,7,8-tetrahydro-1,8-naphthyridin-4-yl)oxy)-1a,6b-dihydro-1H-cyclopropa[b]benzofuran-1-yl)-5-(trifluoromethyl)benzamide] | 2.2 | 0.52 |  |  | 5.7 | 1.7 | 1.3 | 9.4
5 | CN1CCC(Oc2ccc(C(=O)N[C@@H]3[C@H]4Oc5ccc(Oc6ccnc7c6CCC(=O)N7)cc5[C@@H]34)cc2C(F)(F)F)CC1 [Compound 1.51, 4-((1-methylpiperidin-4-yl)oxy)-N-((1S,1aS,6bS)-5-((7-oxo-5,6,7,8-tetrahydro-1,8-naphthyridin-4-yl)oxy)-1a,6b-dihydro-1H-cyclopropa[b]benzofuran-1-yl)-3-(trifluoromethyl)benzamide] | 14 | 1.61 |  |  | 9.8 |  |  | 
6 | Cc1cccc(F)c1C(=O)N[C@@H]1[C@H]2Oc3ccc(Oc4ccnc5c4CCC(=O)N5)cc3[C@@H]12 [Compound 1.37] | 7.5 |  | 80 |  |  | 1240 | 529 | > 5000
7 | O=C(/C=C/c1cccc(C(F)(F)F)c1)N[C@@H]1[C@H]2Oc3ccc(Oc4ccnc5c4CCC(=O)N5)cc3[C@@H]12 [Compound 1.53] | 16 |  | 86 |  |  | 678 | 68 | 1140

Second part, the compound after the results:

Row | IC50 (B-Raf (V600E)) [nM] | IC50 (C-Raf (Y340D/Y341D)) [nM] | Braf-WT Km ATP, % at 100 nM (wild type B-Raf) [% at 100 nM] | IC50 (wild type B-Raf; IC50 Braf-WT […] ATP, […] ATP) [nM] | IC50 (wild type B-Raf; [2]) [nM] | IC50 (WT EGFR kinase domain) [nM] | IC50 (EGFR L858R kinase domain) [nM] | IC50 [1] [nM] | Compound
8 | 9.5 | 2.6 |  |  | 13 | 5.1 | 4.6 | 38 | CN1CCN(c2ccc(C(=O)N[C@@H]3[C@H]4Oc5ccc(Oc6ccnc7c6CCC(=O)N7)cc5[C@@H]34)cc2C(F)(F)F)CC1 [Compound 1.49]
9 | 36 | 3.5 |  | 130 | 36 | 9.8 | 16 | 54 | O=C1CCc2c(Oc3ccc4c(c3)[C@H]3[C@H](NC(=O)c5ccc(CN6CCOCC6)c(C(F)(F)F)c5)[C@H]3O4)ccnc2N1 [Compound 1.7]
10 | 10 | 1.2 |  |  | 8.5 | 1.4 | 0.39 | 6.6 | CN(C)[C@H]1CCCN(c2ccc(C(=O)N[C@@H]3[C@H]4Oc5ccc(Oc6ccnc7c6CCC(=O)N7)cc5[C@@H]34)cc2C(F)(F)F)C1 [Compound 1.47, 4-((S)-3-(dimethylamino)piperidin-1-yl)-N-((1S,1aS,6bS)-5-((7-oxo-5,6,7,8-tetrahydro-1,8-naphthyridin-4-yl)oxy)-1a,6b-dihydro-1H-cyclopropa[b]benzofuran-1-yl)-3-(trifluoromethyl)benzamide]
11 | 7.1 | 1.9 |  | 36 | 14 | 0.7 | 0.079 | 0.088 | CN1CCN(Cc2ccc(C(=O)N[C@@H]3[C@H]4Oc5ccc(Oc6ccnc7c6CCC(=O)N7)cc5[C@@H]34)cc2C(F)(F)F)CC1 [Compound 1.3]
12 | 5.3 | 0.94 |  | 27 | 9.5 | 0.5 | 0.11 | 0.1 | CCN1CCN(Cc2ccc(C(=O)N[C@@H]3[C@H]4Oc5ccc(Oc6ccnc7c6CCC(=O)N7)cc5[C@@H]34)cc2C(F)(F)F)CC1 [Compound 1.1, 4-((4-ethylpiperazin-1-yl)methyl)-N-((1S,1aS,6bS)-5-((7-oxo-5,6,7,8-tetrahydro-1,8-naphthyridin-4-yl)oxy)-1a,6b-dihydro-1H-cyclopropa[b]benzofuran-1-yl)-3-(trifluoromethyl)benzamide]
13 | 6.2 | 1.1 |  |  | 9.1 | 0.61 | 0.14 | 0.3 | C[C@H]1CN(Cc2ccc(C(=O)N[C@@H]3[C@H]4Oc5ccc(Oc6ccnc7c6CCC(=O)N7)cc5[C@@H]34)cc2C(F)(F)F)CCN1 [Compound 1.29, 4-(((S)-3-methylpiperazin-1-yl)methyl)-N-((1S,1aS,6bS)-5-((7-oxo-5,6,7,8-tetrahydro-1,8-naphthyridin-4-yl)oxy)-1a,6b-dihydro-1H-cyclopropa[b]benzofuran-1-yl)-3-(trifluoromethyl)benzamide]
14 | 20 | 1.7 |  |  | 20 |  |  |  | O=C1CCc2c(Oc3ccc4c(c3)[C@H]3[C@H](NC(=O)c5ccc(CN6CCn7c(nnc7C(F)(F)F)C6)c(C(F)(F)F)c5)[C@H]3O4)ccnc2N1 [Compound 1.14]
